Drawing on US20080176866A1, “NOVEL HETARYL-PHENYLENEDIAMINE-PYRIMIDINES AS PROTEIN KINASE INHIBITORS” (priority 2006, published 2008), this text covers IC50 for 17 compounds.

SMILES strings stand for the structures.

One assay deals with T1, human Aurora-C (Homo sapiens, UniProt Q9UQB9).
T1 construct: GST; made in house; host or cells: transiently transfected HEK293 cells
T1 sequence (Q9UQB9 1-309): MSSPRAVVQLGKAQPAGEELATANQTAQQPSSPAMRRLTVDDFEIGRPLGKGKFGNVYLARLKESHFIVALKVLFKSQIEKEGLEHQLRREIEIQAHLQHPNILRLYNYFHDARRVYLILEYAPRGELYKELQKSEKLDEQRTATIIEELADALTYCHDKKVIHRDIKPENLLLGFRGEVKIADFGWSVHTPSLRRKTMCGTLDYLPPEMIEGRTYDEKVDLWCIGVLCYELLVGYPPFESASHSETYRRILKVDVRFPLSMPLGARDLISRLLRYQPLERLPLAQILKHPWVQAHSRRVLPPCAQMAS
As to the kind of experiment: Aurora-C kinase assay (HTRF). The format is biochemical. As to conditions: GST-human Aurora-C, 10 μM ATP. The method, then: The Aurora-C inhibitory activity of the substances of this invention was measured in the Aurora-C-HTRF assay (HTRF=Homogeneous Time Resolved Fluorescence) described in the following paragraphs.
Recombinant fusion protein of GST and human Aurora-C was expressed in transiently transfected HEK293 cells and purified by affinity chromatography on glutathione-Sepharose. The substrate used for the kinase reaction was the biotinylated peptide biotin-Ttds-FMRLRRLSTKYRT (C terminus in amide form) which can be purchased for example from JERINI Peptide Technologies (Berlin). Aurora-C was incubated in the presence of various concentrations of test substances in 5 μL of assay buffer [25 mM Hepes/NaOH pH 7.4, 0.5 mM MnCl2, 2.0 mM dithiothreitol, 0.1 mM sodium orthovanadate, 10 μM adenosine triphosphate (ATP), […] substrate, 0.01% (v/v) TritonX-100 (Sigma), 0.05% (w/v) bovine serum albumin (BSA), 1% (v/v) dimethyl sulphoxide] at 22° C. for 60 min. The concentration of Aurora-C was adapted to the particular activity of the enzyme and adjusted so that the assay operated in the linear range. Typical concentrations were in the region of 0.3 nM. The reaction was stopped by adding 5 μl of a solution of HTRF detection reagents (0.2 μM streptavidin-XLent and 1.4 nM anti-phospho-(Ser/Thr)-Akt substrate-Eu-cryptate (C is biointernational, France, product No. 61P02KAE), a Europium-cryptate-labelled phospho-(Ser/Thr)-Akt substrate antibody [product #9611B, Cell Signaling Technology, Danvers, Mass., USA]) in aqueous EDTA solution (40 mM EDTA, 400 mM KF, 0.05% (w/v) bovine serum albumin (BSA) in 25 mM HEPES/NaOH pH 7.0).
(§1) The resulting mixture was incubated at 22° C. for 1 h in order to allow formation of a complex of the biotinylated phosphorylated substrate and the detection reagents. The amount of phosphorylated substrate was then estimated by measuring the resonance energy transfer from the anti-phospho-(Ser/Thr)-Akt substrate-Eu cryptate to the streptavidin-XLent. For this purpose, the fluorescence emissions at 620 nm and 665 nm after excitation at 350 nm were measured in an HTRF measuring instrument, e.g. a Rubystar (BMG Labtechnologies, Offenburg, Germany) or a Viewlux (Perkin-Elmer). The ratio of the emissions at 665 nm and at 622 nm was taken as a measure of the amount of phosphorylated substrate. The data were normalized (enzymic reaction without inhibitor=0% inhibition, all other assay components but no enzyme=100% inhibition) and IC50 values were calculated with a 4-parameter fit using an inhouse software.
Background: In TR-FRET formats the signal depends on donor and acceptor labels being close together.

Another assay has as its target T2, CDK2/CycE (Homo sapiens, UniProt P24941).
T2 construct: GST; purchased ProQinase GmbH, Freiburg; host or cells: baculovirus-infected insect cells (Sf9)
The assay can be described thus: CDK2/CycE kinase assay (HTRF). The format is biochemical. The following applies: 10 μM ATP. The method, then:
The CDK2/CycE inhibitory activity of the substances of this invention was measured in the CDK2/CycE-HTRF assay (HTRF=Homogeneous Time Resolved Fluorescence) described in the following paragraphs.
Recombinant CDK2-GST and CycE-GST fusion proteins purified from baculovirus-infected insect cells (Sf9) were purchased from ProQinase GmbH, Freiburg. The substrate used for the kinase reaction was the biotinylated peptide biotin-Ttds-YISPLKSPYKISEG (C terminus in amide form) which can be purchased for example from JERINI Peptide Technologies (Berlin).
CDK2/CycE was incubated in the presence of various concentrations of test substances in 5 μL of assay buffer [50 mM Tris/HCl pH 8.0, 10 mM MgCl2, 1.0 mM dithiothreitol, 0.1 mM sodium orthovanadate, 10 μM adenosine triphosphate (ATP), 0.75 μM substrate, 0.01% (v/v) Nonidet-P40 (Sigma), 1% (v/v) dimethyl sulphoxide] at 22° C. for 60 min. The concentration of CDK2/CycE was adapted to the particular activity of the enzyme and adjusted so that the assay operated in the linear range. Typical concentrations were in the region of 1 ng/ml. The reaction was stopped by adding 5 μl of a solution of HTRF detection reagents (0.2 μM streptavidin-XLent and 3.4 nM phospho-(Ser) CDKs substrate antibody [product #2324B, Cell Signaling Technology, Danvers, Mass., USA] and 4 nM Prot-A-EuK [protein A labelled with Europium cryptate from C is biointernational, France, product No. 61 PRAKLB]) in aqueous EDTA solution (100 mM EDTA, 800 mM KF, 0.2% (w/v) bovine serum albumin (BSA) in 100 mM HEPES/NaOH pH 7.0).
as §1, with “Prot-A-EuK” for “anti-phospho-(Ser/Thr)-Akt substrate-Eu cryptate”

As a reminder, the IC50 is the point on the concentration scale where inhibition reaches its midpoint. Read a high IC50 as weaker potency. Consider `C[C@@H](O)[C@@H](C)Oc1nc(Nc2ccc(Nc3nccc(OCCO)n3)cc2)ncc1Br` [Example 8, (2R,3R)-3-(5-Bromo-2-{4-[4-(2-hydroxyethoxy)pyrimidin-2-ylamino]-phenylamino}pyrimidin-4-yloxy)butan-2-ol], for which the IC50 against human Aurora-C stood at 200 nM; against CDK2/CycE it was 2.8 nM.

In the case of `C[C@@H](O)[C@@H](C)Oc1nc(Nc2ccc(Nc3ncccn3)cc2)ncc1Br` [Example 15], the IC50 on human Aurora-C was 140 nM; against CDK2/CycE, 2.9 nM.

As to `C[C@@H](O)[C@@H](C)Oc1nc(Nc2ccc(Nc3nccc(N)n3)cc2)ncc1Br` [Example 16], the results for the IC50 on human Aurora-C and against CDK2/CycE were 42 nM and 2 nM, respectively.

With `C[C@@H](O)[C@@H](C)Oc1nc(Nc2ccc(Nc3nccc(N(C)C)n3)cc2)ncc1Br` [Example 17], the values for the IC50 against human Aurora-C and on CDK2/CycE were 100 nM and 4.4 nM, respectively.

`C[C@@H](O)[C@@H](C)Oc1nc(Nc2ccc(Nc3nccc(NCCN(C)C)n3)cc2)ncc1Br` [Example 18]: the IC50 at human Aurora-C was 75 nM; on CDK2/CycE it was 5.9 nM.

As to `Cc1cnc(Nc2ccc(Nc3ncc(Br)c(O[C@H](C)[C@@H](C)O)n3)cc2)nc1NCCO` [Example 19], the IC50 at human Aurora-C was 91 nM; against CDK2/CycE, 2.2 nM.

Take `C[C@@H](O)[C@@H](C)Oc1nc(Nc2ccc(Nc3ncc(Cl)c(NCCO)n3)cc2)ncc1Br` [Example 21]: the IC50 is 180 nM at human Aurora-C and 2.2 nM against CDK2/CycE.

For the compound `COc1ccnc(Nc2ccc(Nc3ncc(Br)c(O[C@H](C)[C@@H](C)O)n3)cc2)n1` [Example 22], the concentration for half-maximal inhibition (IC50) on human Aurora-C stood at 270 nM; on CDK2/CycE, 4.8 nM.

With `C[C@@H](O)[C@@H](C)Oc1nc(Nc2ccc(Nc3ncc(Br)cn3)cc2)ncc1Br` [Example 24], the concentration for half-maximal inhibition (IC50) on human Aurora-C was 130 nM; against CDK2/CycE it was 6.2 nM.

Consider `C[C@@H](O)[C@@H](C)Oc1nc(Nc2cccc(Nc3ncccn3)c2)ncc1Br` [Example 25], for which the IC50 at human Aurora-C is 340 nM; against CDK2/CycE it was 2 nM.

For the compound `C[C@@H](O)[C@@H](C)Oc1nc(Nc2cccc(Nc3nccc(OCCO)n3)c2)ncc1Br` [Example 27], the IC50 was found to be 440 nM on human Aurora-C and 2.4 nM on CDK2/CycE.

Take `CSc1nc(Nc2ccc(Nc3ccccn3)cc2)ncc1Br` [Example 29]: the IC50 at human Aurora-C was 8100 nM; at CDK2/CycE, 260 nM.

On to `CC(=O)NCCNc1nc(Nc2cccc(Nc3ncc(Br)c(NCCNC(C)=O)n3)c2)ncc1Br` [Example 30], for which the values for the IC50 at human Aurora-C and against CDK2/CycE were 53 nM and 5800 nM, respectively.

Regarding `C[C@@H](O)[C@@H](C)Nc1nc(Nc2ccc(Oc3cccnc3)cc2)ncc1Br` [Example 33], the IC50 stood at 380 nM at human Aurora-C and 6.6 nM on CDK2/CycE.

Turning to `C[C@@H](O)[C@@H](C)Nc1nc(Nc2ccc(Oc3ncccn3)cc2)ncc1Br` [Example 34], the IC50 against human Aurora-C worked out at 490 nM; at CDK2/CycE, 9.1 nM.

Regarding `C[C@@H](O)[C@@H](C)Nc1nc(Nc2ccc(Sc3nncn3C)cc2)ncc1Br` [Example 39], the figures for the IC50 against human Aurora-C and against CDK2/CycE were 350 nM and 1.3 nM, respectively.

Take `C[C@@H](O)[C@@H](C)Sc1nc(Nc2ccc(Nc3ncc(Cl)c(NCCO)n3)cc2)ncc1Br` [Example 44]: the IC50 on human Aurora-C stood at 1000 nM; against CDK2/CycE it was 370 nM.
